ChEMBL document CHEMBL1134162 (Bioorg Med Chem Lett, 2001)

Molecular target: T1, Mu-type opioid receptor (Cavia porcellus, UniProt P97266)
Experiment: Inhibitory activity against Opioid receptor mu 1 of (endomorphin 2) in guinea pig ileum was determined

T1 sequence (P97266 whole entry): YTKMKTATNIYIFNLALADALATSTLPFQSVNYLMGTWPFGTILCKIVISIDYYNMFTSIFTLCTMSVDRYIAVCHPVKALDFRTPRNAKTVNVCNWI

| SMILES | Kb |
| --- | --- |
| Cc1cccc(C)c1C[C@H](NC(=O)CNC(=O)CNC(=O)[C@@H](N)Cc1c(C)cc(O)cc1C)C(=O)N[C@@H](CC(C)C)C(=O)O | 126 nM |

Molecular target: T1, Mu-type opioid receptor
Experiment: In vitro inhibitory activity was determined against Opioid receptor mu 1 in guinea pig ileum

| SMILES | IC50 |
| --- | --- |
| Cc1cc(O)cc(C)c1C[C@H](N)C(=O)NCC(=O)NCC(=O)N[C@H](Cc1c(C)cccc1C)C(=O)N[C@@H](CC(C)C)C(=O)O | 2 nM |
| Cc1cccc(C)c1C[C@@H](NC(=O)CNC(=O)CNC(=O)[C@@H](N)Cc1ccc(O)cc1)C(=O)N[C@@H](CC(C)C)C(=O)O | 808 nM |
| Cc1cc(O)cc(C)c1C[C@H](N)C(=O)NCC(=O)NCC(=O)N[C@@H](Cc1ccccc1)C(=O)N[C@@H](CC(C)C)C(=O)O | 0.55 nM |
| Cc1cccc(C)c1C[C@H](NC(=O)CNC(=O)CNC(=O)[C@@H](N)Cc1c(C)cc(O)cc1C)C(=O)N[C@@H](CC(C)C)C(=O)O | > 10 nM |
| Cc1cccc(C)c1C[C@H](NC(=O)CNC(=O)CNC(=O)[C@@H](N)Cc1ccc(O)cc1)C(=O)N[C@@H](CC(C)C)C(=O)O | > 10 nM |

Molecular target: T2, Delta-type opioid receptor (Mus musculus, UniProt P32300)
Experiment: In vitro inhibitory activity was determined against Opioid receptor delta 1 in mouse vas deferens

T2 sequence (P32300 whole entry): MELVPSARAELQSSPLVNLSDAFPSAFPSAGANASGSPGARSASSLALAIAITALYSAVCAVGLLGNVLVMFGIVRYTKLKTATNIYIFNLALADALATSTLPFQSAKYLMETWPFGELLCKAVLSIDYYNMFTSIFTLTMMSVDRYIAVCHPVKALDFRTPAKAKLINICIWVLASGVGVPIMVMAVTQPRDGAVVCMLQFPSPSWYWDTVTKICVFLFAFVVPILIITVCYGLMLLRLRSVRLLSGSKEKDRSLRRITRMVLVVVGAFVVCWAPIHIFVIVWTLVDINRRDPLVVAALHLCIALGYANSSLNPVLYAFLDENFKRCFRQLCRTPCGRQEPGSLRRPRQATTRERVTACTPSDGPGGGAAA

| SMILES | IC50 |
| --- | --- |
| Cc1cc(O)cc(C)c1C[C@H](N)C(=O)NCC(=O)NCC(=O)N[C@H](Cc1c(C)cccc1C)C(=O)N[C@@H](CC(C)C)C(=O)O | 1.45 nM |
| Cc1cccc(C)c1C[C@@H](NC(=O)CNC(=O)CNC(=O)[C@@H](N)Cc1ccc(O)cc1)C(=O)N[C@@H](CC(C)C)C(=O)O | 624 nM |
| Cc1cc(O)cc(C)c1C[C@H](N)C(=O)NCC(=O)NCC(=O)N[C@@H](Cc1ccccc1)C(=O)N[C@@H](CC(C)C)C(=O)O | 0.17 nM |
| Cc1cccc(C)c1C[C@H](NC(=O)CNC(=O)CNC(=O)[C@@H](N)Cc1ccc(O)cc1)C(=O)N[C@@H](CC(C)C)C(=O)O | > 10 nM |

Molecular target: T2, Delta-type opioid receptor
Experiment: Inhibitory activity against Opioid receptor delta 1 of (endomorphin 2) in mouse vas deferens was determined

| SMILES | IC50 |
| --- | --- |
| Cc1cccc(C)c1C[C@H](NC(=O)CNC(=O)CNC(=O)[C@@H](N)Cc1c(C)cc(O)cc1C)C(=O)N[C@@H](CC(C)C)C(=O)O | > 10 nM |

Molecular target: Mu-type opioid receptor (Rattus norvegicus, UniProt P33535)
Experiment: Binding affinity was determined towards Opioid receptor mu 1 in rat brain synaptosomes using [3H]DAMGO as radioligand.

Mu-type opioid receptor (Rattus norvegicus, UniProt P33535), sequence (P33535 whole entry): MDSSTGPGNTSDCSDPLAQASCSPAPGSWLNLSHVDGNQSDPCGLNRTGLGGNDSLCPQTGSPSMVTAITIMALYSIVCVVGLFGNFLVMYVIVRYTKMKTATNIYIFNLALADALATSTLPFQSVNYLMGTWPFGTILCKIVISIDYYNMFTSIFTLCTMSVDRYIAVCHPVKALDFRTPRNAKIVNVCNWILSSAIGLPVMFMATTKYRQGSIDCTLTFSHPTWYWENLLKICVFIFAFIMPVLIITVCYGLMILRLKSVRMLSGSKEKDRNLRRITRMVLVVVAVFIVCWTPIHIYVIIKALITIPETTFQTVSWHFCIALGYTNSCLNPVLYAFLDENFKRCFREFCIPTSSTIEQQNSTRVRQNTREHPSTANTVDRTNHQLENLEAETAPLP

| SMILES | Ki |
| --- | --- |
| Cc1cc(O)cc(C)c1C[C@H](N)C(=O)NCC(=O)NCC(=O)N[C@H](Cc1c(C)cccc1C)C(=O)N[C@@H](CC(C)C)C(=O)O | 0.03 nM |
| Cc1cccc(C)c1C[C@@H](NC(=O)CNC(=O)CNC(=O)[C@@H](N)Cc1ccc(O)cc1)C(=O)N[C@@H](CC(C)C)C(=O)O | 1.25 nM |
| Cc1cc(O)cc(C)c1C[C@H](N)C(=O)NCC(=O)NCC(=O)N[C@@H](Cc1ccccc1)C(=O)N[C@@H](CC(C)C)C(=O)O | 0.0068 nM |
| Cc1cccc(C)c1C[C@H](NC(=O)CNC(=O)CNC(=O)[C@@H](N)Cc1c(C)cc(O)cc1C)C(=O)N[C@@H](CC(C)C)C(=O)O | 5.61 nM |

Molecular target: T2, Delta-type opioid receptor
Experiment: Inhibitory activity against delta receptor of (endomorphin 2) in mouse vas deferens was determined

| SMILES | Kb |
| --- | --- |
| Cc1cccc(C)c1C[C@H](NC(=O)CNC(=O)CNC(=O)[C@@H](N)Cc1c(C)cc(O)cc1C)C(=O)N[C@@H](CC(C)C)C(=O)O | 2570 nM |

Molecular target: Mu-type opioid receptor (Rattus norvegicus) (UniProt P33535)
Sequence (P33535 whole entry): as above
Description: Selectivity ratio was determined by taking the ratio of Opioid receptor mu 1 to that of Opioid receptor delta 1

| SMILES | SR |
| --- | --- |
| Cc1cc(O)cc(C)c1C[C@H](N)C(=O)NCC(=O)NCC(=O)N[C@H](Cc1c(C)cccc1C)C(=O)N[C@@H](CC(C)C)C(=O)O | 0.19 |
| Cc1cccc(C)c1C[C@@H](NC(=O)CNC(=O)CNC(=O)[C@@H](N)Cc1ccc(O)cc1)C(=O)N[C@@H](CC(C)C)C(=O)O | 0.07 |
| Cc1cc(O)cc(C)c1C[C@H](N)C(=O)NCC(=O)NCC(=O)N[C@@H](Cc1ccccc1)C(=O)N[C@@H](CC(C)C)C(=O)O | 0.22 |
| Cc1cccc(C)c1C[C@H](NC(=O)CNC(=O)CNC(=O)[C@@H](N)Cc1c(C)cc(O)cc1C)C(=O)N[C@@H](CC(C)C)C(=O)O | 0.14 |
| Cc1cccc(C)c1C[C@H](NC(=O)CNC(=O)CNC(=O)[C@@H](N)Cc1ccc(O)cc1)C(=O)N[C@@H](CC(C)C)C(=O)O | 0.28 |
